# Test results as given in publication PMC8286840, “Identifying SARS-CoV-2 antiviral compounds by screening for small molecule inhibitors of Nsp3 papain-like protease” (Biochemical Journal, 2021).
# Counter-ions that a name gives are not always drawn. Like-named read-outs stand apart in the source and are kept apart here.
# Key:
# [1] = biological target: T1, SARS-CoV-2 PLpro (nsp3 1564–1878) (Severe acute respiratory syndrome coronavirus 2, UniProt P0DTD1); assay: biochemical; set-up: FRET-quenched peptide (Pro3) cleavage by PLpro, 10 min pre-incubation, slope over 20 min, normalised to no-compound control; conditions: low concentration screen, read-out: % of control remaining
# [2] = biological target: T1, SARS-CoV-2 PLpro (nsp3 1564–1878); assay: biochemical; set-up: FRET-quenched peptide (Pro3) cleavage by PLpro, 10 min pre-incubation, slope over 20 min, normalised to no-compound control; conditions: high concentration screen, read-out: % of control remaining
smiles,measurement,setting,value
CCCN1CCc2cccc3c2[C@H]1Cc1ccc(O)c(O)c1-3 [R(-)-Propylnorapomorphine hydrochloride],remaining activity at 1.25 µM,[1]; Well no.=540,104%
same,remaining activity at 3.75 µM,[2]; Well no.=540,108%
COc1cc2c(cc1OC)[C@@H](c1ccccc1)CN(C)CC2 [R(-)-SCH-12679 maleate],remaining activity at 1.25 µM,[1]; Well no.=1231,101%
same,remaining activity at 3.75 µM,[2]; Well no.=1231,104%
[N-]=[N+]=N[C@]1(CO)O[C@@H](n2ccc(N)nc2=O)[C@H](O)[C@@H]1O [R-1479],remaining activity at 1.25 µM,[1]; Well no.=7756,97.4%
same,remaining activity at 3.75 µM,[2]; Well no.=7756,99%
CCCN(CCC)[C@@H]1CCc2ccc(O)cc2C1 [R-(+)-7-Hydroxy-DPAT hydrobromide],remaining activity at 1.25 µM,[1]; Well no.=428,97.2%
same,remaining activity at 3.75 µM,[2]; Well no.=428,96.9%
CCCN(CCC)[C@@H]1CCc2cccc(O)c2C1 [R-(+)-8-Hydroxy-DPAT hydrobromide],remaining activity at 1.25 µM,[1]; Well no.=762,92.2%
same,remaining activity at 3.75 µM,[2]; Well no.=762,88.8%
CNCC[C@@H](Oc1ccc(C(F)(F)F)cc1)c1ccccc1 [R-(-)-Fluoxetine hydrochloride],remaining activity at 1.25 µM,[1]; Well no.=419,92.7%
same,remaining activity at 3.75 µM,[2]; Well no.=419,92.4%
N[C@@H](Cc1ccccc1)C(=O)N1C/C(=C/c2ccc(Cl)c(Cl)c2)C(=O)/C(=C\c2ccc(Cl)c(Cl)c2)C1 [RA190],remaining activity at 1.25 µM,[1]; Well no.=8408,89.3%
same,remaining activity at 3.75 µM,[2]; Well no.=8408,89.8%
COc1ccc(OC)c(C2C(C#N)=C(N)Oc3n[nH]c(-c4ccc5ccccc5c4)c32)c1 (centres unmarked) [RBC8],remaining activity at 1.25 µM,[1]; Well no.=7809,105%
same,remaining activity at 3.75 µM,[2]; Well no.=7809,113%
CC(C)Oc1cccnc1N(C)C1CCN(Cc2ccc(I)cc2)CC1 [RBI-257 maleate],remaining activity at 1.25 µM,[1]; Well no.=1402,103%
same,remaining activity at 3.75 µM,[2]; Well no.=1402,105%
CCCCCC(O)c1cccc(OCc2ccc3ccccc3n2)c1 (centres unmarked) [REV 5901],remaining activity at 1.25 µM,[1]; Well no.=1158,104%
same,remaining activity at 3.75 µM,[2]; Well no.=1158,101%
CCCCCC(O)c1cccc(OCc2ccc3ccccc3n2)c1 (centres unmarked) [REV-5901],remaining activity at 1.25 µM,[1]; Well no.=4520,92.4%
same,remaining activity at 3.75 µM,[2]; Well no.=4520,95.4%
O=C(O)C(Cc1c[nH]c2ccccc12)N1C(=O)c2ccccc2C1=O (centres unmarked) [RG108],remaining activity at 1.25 µM,[1]; Well no.=4791,103%
same,remaining activity at 1.25 µM,[1]; Well no.=8370,88.9%
same,remaining activity at 3.75 µM,[2]; Well no.=4791,104%
same,remaining activity at 3.75 µM,[2]; Well no.=8370,85.1%
CCOc1cc(C(C)(C)C)ccc1C1=N[C@@](C)(c2ccc(Cl)cc2)[C@@](C)(c2ccc(Cl)cc2)N1C(=O)N1CCN(CCCS(C)(=O)=O)CC1 [RG7112],remaining activity at 1.25 µM,[1]; Well no.=6676,94.8%
same,remaining activity at 3.75 µM,[2]; Well no.=6676,94%
O=C(NCCCCCCNC(=O)ON=C1CCCCC1)ON=C1CCCCC1 [RHC 80267],remaining activity at 1.25 µM,[1]; Well no.=5818,96.6%
same,remaining activity at 3.75 µM,[2]; Well no.=5818,99.1%
CO[C@H]1/C=C/O[C@@]2(C)Oc3c(C)c(O)c4c(O)c(cc(O)c4c3C2=O)NC(=O)/C(C)=C\C=C\[C@H](C)[C@H](O)[C@@H](C)[C@@H](O)[C@@H](C)[C@H](OC(C)=O)[C@@H]1C [RIFAMYCIN SV],remaining activity at 1.25 µM,[1]; Well no.=1987,105%
same,remaining activity at 3.75 µM,[2]; Well no.=1987,97.9%
CC(C)(C)S(=O)(=O)c1cc2c(Nc3ccc4scnc4c3)ncnc2cc1OCCO [RIP2 kinase inhibitor 1],remaining activity at 1.25 µM,[1]; Well no.=6932,102%
same,remaining activity at 3.75 µM,[2]; Well no.=6932,105%
CCC(C)(C)C(=O)N(O)Cc1ccccc1 [RIPA-56],remaining activity at 1.25 µM,[1]; Well no.=6210,90.8%
same,remaining activity at 3.75 µM,[2]; Well no.=6210,92.1%
CCn1cc(-c2ccc3c(c2)CCN3C(=O)Cc2cccc(OC(F)(F)F)c2)c2c(N)ncnc21 [RIPK1-IN-7],remaining activity at 1.25 µM,[1]; Well no.=6824,94.8%
same,remaining activity at 3.75 µM,[2]; Well no.=6824,94.4%
OCc1ccc(-c2ccc(-c3ccc(CO)s3)o2)s1 [RITA (NSC 652287)],remaining activity at 1.25 µM,[1]; Well no.=4741,103%
same,remaining activity at 3.75 µM,[2]; Well no.=4741,108%
COc1cc(C(N)=O)ccc1NC(=O)[C@@H]1N[C@@H](CC(C)(C)C)[C@@]2(C(=O)Nc3cc(Cl)ccc32)[C@H]1c1cccc(Cl)c1F [RO8994],remaining activity at 1.25 µM,[1]; Well no.=7108,92.4%
same,remaining activity at 3.75 µM,[2]; Well no.=7108,89.6%
[N-]=[N+]=N[C@]1(CO)O[C@@H](n2ccc(N)nc2=O)[C@@H](O)[C@@H]1O [RO-9187],remaining activity at 1.25 µM,[1]; Well no.=7762,98.5%
same,remaining activity at 3.75 µM,[2]; Well no.=7762,101%
"C[C@@H](N)[C@H]1CC[C@H](C(=O)Nc2ccncc2)CC1 [ROCK Inhibitor, Y-27632]",remaining activity at 1.25 µM,[1]; Well no.=2452,99.4%
same,remaining activity at 3.75 µM,[2]; Well no.=2452,98.5%
O=C(CBr)N1CC([N+](=O)[O-])([N+](=O)[O-])C1 [RRx-001],remaining activity at 1.25 µM,[1]; Well no.=8632,105%
same,remaining activity at 3.75 µM,[2]; Well no.=8632,98.9%
O=C1Nc2ccccc2C2(CCN(CCc3ccc(C(F)(F)F)cc3)CC2)O1 [RS102895 (hydrochloride)],remaining activity at 1.25 µM,[1]; Well no.=8003,98.5%
same,remaining activity at 1.25 µM,[1]; Well no.=8275,106%
same,remaining activity at 3.75 µM,[2]; Well no.=8003,93.3%
same,remaining activity at 3.75 µM,[2]; Well no.=8275,104%
CC(C)c1cc(-c2ccc(F)c3ccccc23)nc(N)n1 [RS 127445],remaining activity at 1.25 µM,[1]; Well no.=8477,107%
same,remaining activity at 3.75 µM,[2]; Well no.=8477,105%
Cc1ccc2c(c1)C1(CCN(CCc3nc(-c4ccccc4)oc3C)CC1)OC(=O)N2 [RS 504393],remaining activity at 1.25 µM,[1]; Well no.=8391,99.2%
same,remaining activity at 3.75 µM,[2]; Well no.=8391,95.2%
CC(C)c1cc(-c2ccc(F)c3ccccc23)nc(N)n1 [RS-127445],remaining activity at 1.25 µM,[1]; Well no.=4683,106%
same,remaining activity at 3.75 µM,[2]; Well no.=4683,102%
"CC(=O)O[C@@H]1[C@@H](OC(C)=O)[C@@H](O)[C@H](Oc2c(-c3ccc(O)cc3)oc3cc(O)cc(O)c3c2=O)O[C@H]1C [RSK Inhibitor, SL0101]",remaining activity at 1.25 µM,[1]; Well no.=2635,95.6%
same,remaining activity at 3.75 µM,[2]; Well no.=2635,97.4%
COc1ccc2[nH]cc(C3=CCNCC3)c2c1 [RU 24969],remaining activity at 1.25 µM,[1]; Well no.=7997,104%
same,remaining activity at 3.75 µM,[2]; Well no.=7997,102%
OCCC#Cc1nc(-c2ccc(F)cc2)c(-c2ccncc2)n1CCCc1ccccc1 [RWJ-67657],remaining activity at 1.25 µM,[1]; Well no.=2987,94.7%
same,remaining activity at 3.75 µM,[2]; Well no.=2987,91.7%
COC1(C2=NCCN2)COc2ccccc2O1 (centres unmarked) [RX 821002 hydrochloride],remaining activity at 1.25 µM,[1]; Well no.=1208,100%
same,remaining activity at 3.75 µM,[2]; Well no.=1208,98.7%
CC(=O)SCC(Cc1ccccc1)C(=O)NCC(=O)OCc1ccccc1 (centres unmarked) [Racecadotril],remaining activity at 1.25 µM,[1]; Well no.=2191,97.6%
same,remaining activity at 3.75 µM,[2]; Well no.=2191,95.7%
C[C@@H]1C[C@H]2O[C@@H]2/C=C\C=C\C(=O)Cc2c(Cl)c(O)cc(O)c2C(=O)O1 [Radicicol],remaining activity at 1.25 µM,[1]; Well no.=3124,95.9%
same,remaining activity at 3.75 µM,[2]; Well no.=3124,98.1%
O=C(c1ccc(OCCN2CCCCC2)cc1)c1c(-c2ccc(O)cc2)sc2cc(O)ccc12 [Raloxifene hydrochloride],remaining activity at 1.25 µM,[1]; Well no.=1204,97.4%
same,remaining activity at 3.75 µM,[2]; Well no.=1204,99.2%
O=C(c1ccc(OCCN2CCCCC2)cc1)c1c(-c2ccc(O)cc2)sc2cc(O)ccc12 [Raloxifene],remaining activity at 1.25 µM,[1]; Well no.=1662,107%
same,remaining activity at 3.75 µM,[2]; Well no.=1662,108%
